Results on 20 molecules are retold here after PubChem BioAssay (NCI).

Some test systems named below: HL-60(TB) leukemia; SNB-19 CNS; A549 NSCLC; HCT-15 colon; SF-295 CNS; 786-0 renal; HCC-2998 colon; RXF 393 renal; A498 renal.
What all share (assay): growth of human tumour cells (NCI), 48 h

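Exposure lasted 48 hours, with cells grown in 96-well plates and compounds tested at five concentrations. GI50 = concentration required for 50% inhibition of growth. Definition used: TGI = concentration required for complete inhibition of growth.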

For `CC(=O)Nc1ccc(/C=C2\N=C(c3ccccc3)OC2=O)cc1`, the TGI in the experiment with HL-60(TB) leukemia, in the experiment with SNB-19 CNS, in the experiment on A549 NSCLC, with HCT-15 colon, in the experiment with SF-295 CNS and in the experiment on 786-0 renal was above 100 µM in each case. The TGI with HCC-2998 colon and with RXF 393 renal was above 100 µM throughout.

For `COc1ccc2c(c1)[n+](=O)c(C(=O)C/C(=N/NC(=O)C[N+](C)(C)C)C(=O)Nc1cccc(C)c1C)c(C)n2O`, the TGI in the experiment with A498 renal, in the experiment on SNB-19 CNS, in the experiment on A549 NSCLC, in the experiment on HCT-15 colon, in the experiment with SF-295 CNS and with 786-0 renal was above 100 µM throughout. The TGI with HCC-2998 colon and with RXF 393 renal was above 100 µM each time.

For the molecule `CN(C)C(=O)NC(=S)N(C)C`, the TGI with A498 renal, with HL-60(TB) leukemia, in the experiment with SNB-19 CNS, in the experiment on A549 NSCLC, with HCT-15 colon and with SF-295 CNS was above 100 µM throughout. For the same molecule, the TGI in the experiment with 786-0 renal, in the experiment on HCC-2998 colon and in the experiment on RXF 393 renal was above 100 µM each time.

For the molecule `COC(=O)C1C(=O)O[C@@H](c2ccc(OC)c(OC)c2OC)C1C(=O)OC` (mixture of isomers), the TGI in the experiment with A498 renal, with HL-60(TB) leukemia, in the experiment with SNB-19 CNS, with A549 NSCLC, in the experiment on HCT-15 colon and with SF-295 CNS was above 100 µM each time. Further, the TGI with 786-0 renal, with HCC-2998 colon and in the experiment on RXF 393 renal was above 100 µM in each case.

For the molecule `O=C(N/C(=C\c1ccccc1Cl)c1nc2ccccc2[nH]1)c1ccccc1`, the TGI with HL-60(TB) leukemia was 71.4 µM; in the experiment on SNB-19 CNS it was above 100 µM; in the experiment on A549 NSCLC, above 100 µM; in the experiment on HCT-15 colon, above 100 µM; with SF-295 CNS it was 43.4 µM; with 786-0 renal it was above 100 µM. The results for the TGI in the experiment on HCC-2998 colon and in the experiment with RXF 393 renal were 91 µM and 91.5 µM, respectively.

In the case of `CCN(CC)CCN1C(=O)C2C3C(=O)CC(C)(CC3C)C2C1=O` (stereo not given), the GI50 with A498 renal, in the experiment with HL-60(TB) leukemia, with SNB-19 CNS, in the experiment on A549 NSCLC, with HCT-15 colon and in the experiment with SF-295 CNS was above 100 µM throughout. Besides, the GI50 in the experiment with 786-0 renal, in the experiment on HCC-2998 colon and in the experiment on RXF 393 renal was above 100 µM throughout. Besides, the TGI in the experiment with A498 renal, in the experiment on HL-60(TB) leukemia, with SNB-19 CNS, with A549 NSCLC, with HCT-15 colon and with SF-295 CNS was above 100 µM throughout. Moreover, the TGI in the experiment with 786-0 renal, in the experiment on HCC-2998 colon and in the experiment with RXF 393 renal was above 100 µM throughout.

In the case of `c1ccc(-c2n(Cc3ccc4ccccc4c3)cc[n+]2Cc2ccc3ccccc3c2)cc1`, the GI50 was 1.79 µM with HCT-15 colon, 1.26 µM in the experiment on SF-295 CNS, 1.46 µM with 786-0 renal and 1.12 µM in the experiment on RXF 393 renal. In addition, the TGI in the experiment with HCT-15 colon came out at 3.46 µM; in the experiment with SF-295 CNS it was 2.55 µM; in the experiment on 786-0 renal, 3.02 µM; in the experiment with RXF 393 renal, 2.44 µM.

As to `CC(=O)[CH-]C(=O)c1ccccc1.CC(=O)[CH-]C(=O)c1ccccc1.CC(C)CCC[C@H](C)C1CCC2[C@@H]3CC=C4C[C@@H]([O-])CC[C@]4(C)C3CC[C@@]21C.CC(C)CCC[C@H](C)C1CCC2[C@@H]3CC=C4C[C@@H]([O-])CC[C@]4(C)C3CC[C@@]21C.Cl.[Ti+4]` (stereo not given in full), the GI50 with A498 renal is above 25 µM; in the experiment on HL-60(TB) leukemia it was 13.7 µM; with SNB-19 CNS, above 25 µM; with A549 NSCLC, above 25 µM; in the experiment with HCT-15 colon it was above 25 µM; in the experiment with SF-295 CNS, above 25 µM. In addition, the GI50 with 786-0 renal, with HCC-2998 colon and with RXF 393 renal was above 25 µM in each case. The TGI with A498 renal, in the experiment on HL-60(TB) leukemia, in the experiment with SNB-19 CNS, in the experiment on A549 NSCLC, in the experiment on HCT-15 colon and in the experiment on SF-295 CNS was above 25 µM in each case. Besides, the TGI in the experiment on 786-0 renal, with HCC-2998 colon and in the experiment on RXF 393 renal was above 25 µM in each case.

As to `Cc1cc(=O)n(-c2c(C)cccc2Cl)c(/C=C(\O)c2ccncc2)n1`, the TGI in the experiment with A498 renal, in the experiment with HL-60(TB) leukemia, with SNB-19 CNS, in the experiment with A549 NSCLC, in the experiment with HCT-15 colon and in the experiment on SF-295 CNS was above 100 µM throughout. Also, the TGI in the experiment with 786-0 renal, in the experiment on HCC-2998 colon and with RXF 393 renal was above 100 µM each time.

As to `CC(=O)OCC1OC(OCc2ccccc2)C(Br)C(OC(C)=O)C1OC(C)=O` (stereo not given), the TGI with A498 renal, in the experiment on HL-60(TB) leukemia, with SNB-19 CNS, in the experiment on A549 NSCLC, in the experiment on HCT-15 colon and in the experiment with SF-295 CNS was above 100 µM throughout. The TGI in the experiment with 786-0 renal, with HCC-2998 colon and with RXF 393 renal was above 100 µM in each case.

Regarding `CC1CCC(=O)C(C(O)CC2CC(=O)N(c3ccccc3)C(=O)C2)C1` (stereo not given), the TGI with A498 renal, with HL-60(TB) leukemia, in the experiment with SNB-19 CNS, in the experiment on A549 NSCLC, with SF-295 CNS and in the experiment with 786-0 renal was above 100 µM each time. The TGI in the experiment on HCC-2998 colon and in the experiment with RXF 393 renal was above 100 µM in each case.

For the molecule `CCN(CC)CC(=O)NC1c2ccccc2Oc2c(C)cccc21` (stereo not given), the TGI in the experiment on HL-60(TB) leukemia, in the experiment with SNB-19 CNS, in the experiment on A549 NSCLC, with HCT-15 colon, with 786-0 renal and in the experiment on HCC-2998 colon was above 100 µM throughout. Also, the TGI in the experiment with RXF 393 renal was above 100 µM.

As to `CN(C)CCn1cnc2ncccc2c1=O`, the TGI in the experiment with SNB-19 CNS, in the experiment with A549 NSCLC, in the experiment with SF-295 CNS, in the experiment on 786-0 renal, in the experiment on HCC-2998 colon and in the experiment with RXF 393 renal was above 100 µM in each case.

In the case of `C=C1C(=O)O[C@H]2[C@H]1CC/C(Cn1cc(-c3cccc(Cl)c3)nn1)=C\CC[C@@]1(C)O[C@@H]21`, the GI50 with A498 renal was 1.52 µM; in the experiment on HL-60(TB) leukemia, 0.332 µM; with SNB-19 CNS it was 2.4 µM; with A549 NSCLC, 1.79 µM; in the experiment with HCT-15 colon, 0.192 µM; in the experiment on SF-295 CNS, 3.41 µM. The results for the GI50 with 786-0 renal, in the experiment on HCC-2998 colon and in the experiment with RXF 393 renal were 0.506 µM, 1.64 µM and 0.558 µM, respectively. In addition, the TGI with A498 renal amounted to 2.97 µM; with HL-60(TB) leukemia, 1.31 µM; in the experiment with SNB-19 CNS it was 6.45 µM; in the experiment with A549 NSCLC, 3.57 µM; in the experiment with HCT-15 colon it was 0.479 µM; with SF-295 CNS, 13 µM. Besides, the TGI was 1.87 µM in the experiment on 786-0 renal, 3.29 µM in the experiment with HCC-2998 colon and 1.85 µM with RXF 393 renal.

On to `CC1=C(C(=O)NCc2ccccc2)C(c2ccccc2C)C(C(=O)NCc2ccccc2)=C(C)N1`, for which the TGI is above 100 µM in the experiment with A498 renal; 59.3 µM in the experiment on HL-60(TB) leukemia; above 100 µM with SNB-19 CNS; above 100 µM in the experiment with A549 NSCLC; 36.6 µM in the experiment with HCT-15 colon; above 85.5 µM in the experiment on SF-295 CNS. Moreover, the TGI was 67 µM in the experiment with 786-0 renal, above 60 µM in the experiment with HCC-2998 colon and 43.7 µM in the experiment with RXF 393 renal.

Consider `O=C(CO[N+](=O)[O-])OC/C=C/c1ccccc1`, for which the TGI in the experiment on HL-60(TB) leukemia was 60.6 µM; with SNB-19 CNS, above 100 µM; in the experiment with A549 NSCLC, above 100 µM; in the experiment on HCT-15 colon it was above 100 µM; in the experiment on SF-295 CNS, above 100 µM; with 786-0 renal it was above 100 µM. For the same molecule, the TGI with HCC-2998 colon and in the experiment on RXF 393 renal was above 100 µM throughout.

Turning to `COc1ccc(S(=O)(=O)N[C@H](C(=O)O)c2ccccc2)cc1`, the TGI in the experiment on SNB-19 CNS, with A549 NSCLC, with HCT-15 colon, in the experiment on SF-295 CNS, with 786-0 renal and in the experiment on HCC-2998 colon was above 100 µM throughout. The TGI in the experiment with RXF 393 renal was above 100 µM.

As for `COc1cc(-c2ccc(NC(=O)SCCC(=O)O)cc2OC)ccc1NC(=O)SCCC(=O)O`, the TGI in the experiment on A498 renal, in the experiment on HL-60(TB) leukemia, in the experiment on SNB-19 CNS, in the experiment with A549 NSCLC, with HCT-15 colon and with SF-295 CNS was above 100 µM throughout. Moreover, the TGI with 786-0 renal and with RXF 393 renal was above 100 µM in each case.

On to `CCOc1ccc(OCC)c([P+](c2ccccc2)(c2ccccc2)c2ccccc2)c1`, for which the TGI with A498 renal came to 4.42 µM; in the experiment with HL-60(TB) leukemia, 0.529 µM; with SNB-19 CNS it was 12.7 µM; in the experiment with A549 NSCLC it was 11.6 µM; in the experiment with SF-295 CNS it was 6.38 µM; in the experiment on 786-0 renal it was 15.6 µM. The TGI came out at 11 µM in the experiment on HCC-2998 colon and 15.7 µM in the experiment with RXF 393 renal.

Take `CCOC(=O)C(NO)C(Sc1ccccc1)c1ccc(OC)cc1` (stereo not given): the TGI with SNB-19 CNS, with A549 NSCLC, with HCT-15 colon, in the experiment with SF-295 CNS, in the experiment with 786-0 renal and with HCC-2998 colon was above 100 µM throughout. The molecule further had a TGI in the experiment on RXF 393 renal of 52.3 µM.
